Measurements: US20240051958A1, “DIACYLGLYCEROL KINASE (DGK) ALPHA INHIBITORS AND USES THEREOF” (priority 2022, published 2024)

Tests used:
Human Pan T cells = assay: IL-2 Release Detection Assay; type: cell-based; settings: for Activation fold: Top activation/DMSO control; for Activation % at 100 nM: fitted curve at 100 nM/DMSO control*100%
Experimental: Add dilutions of compounds into the cells and incubate at 37° C. &5% CO2 for 24 hours. IL-2 in cell supernatant was detected by ELISA Kit (R&D, DY202). […] Top and Bottom: Plateaus in same units as Y. LogEC50: same log units as X. Activation fold: Top activation/DMSO control. Activation % at 100 nM: Activation of non-linear regression equation curve at the concentration of 100 nM/DMSO control*100%.

DGKA = DGKA (Homo sapiens (Human), UniProt P23743); assay: DGKA Inhibition ADP-Glo Assay; type: biochemical; settings: 40 μM ATP, 200 μM DLG in substrate working solution, 25° C., 60 min
Sequence of DGKA (P23743 whole entry): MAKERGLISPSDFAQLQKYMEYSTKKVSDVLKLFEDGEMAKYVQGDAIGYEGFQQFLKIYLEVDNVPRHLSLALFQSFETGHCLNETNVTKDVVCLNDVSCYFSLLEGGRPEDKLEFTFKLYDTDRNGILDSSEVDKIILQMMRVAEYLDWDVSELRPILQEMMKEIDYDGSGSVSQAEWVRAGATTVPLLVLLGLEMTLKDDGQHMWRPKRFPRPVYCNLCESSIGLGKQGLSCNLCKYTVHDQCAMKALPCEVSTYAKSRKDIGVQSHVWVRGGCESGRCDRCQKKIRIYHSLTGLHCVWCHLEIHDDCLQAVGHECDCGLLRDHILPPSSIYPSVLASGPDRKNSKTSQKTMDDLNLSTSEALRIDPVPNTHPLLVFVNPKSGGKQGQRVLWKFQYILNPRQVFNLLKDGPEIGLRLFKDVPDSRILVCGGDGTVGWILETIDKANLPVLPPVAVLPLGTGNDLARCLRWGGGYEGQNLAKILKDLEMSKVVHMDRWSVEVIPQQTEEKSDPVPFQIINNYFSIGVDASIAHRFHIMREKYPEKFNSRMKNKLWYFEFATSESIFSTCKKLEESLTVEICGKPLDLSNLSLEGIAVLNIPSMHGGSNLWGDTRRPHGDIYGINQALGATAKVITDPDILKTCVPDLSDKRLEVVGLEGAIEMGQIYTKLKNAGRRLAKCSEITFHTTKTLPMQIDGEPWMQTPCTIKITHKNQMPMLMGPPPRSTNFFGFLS
Experimental: The DGKA inhibition reactions were performed using ADP-Glo assay. The reactions were carried out in 50 mM HEPES, 100 mM NaCl, 10 mM MgCl2, 1 mM CaCl2, 0.005% TritonX-100 and 1 mM DTT as working solution (pH=7.5). 30 nL DMSO solution of each test compound (Top concentration 0.4 μM with 10 point, 4-fold dilution series for each compound) were transferred to 384 well plate by Echo and 5 μL DGKA (SignalChem, D21-10BG) enzyme working solution at 2×final reaction concentration was added to each well. After incubated at 25° C. for 15 minutes, 5 μL substrate working solution contain 40 μM ATP (Promega, V915B) and 200 μM DLG (SignalChem, D430-59) were added to initiate reaction. After enzymatic reaction at 25° C. for 60 min, ADP Glo assay reagents (Promega, V9102) were added and luminescence was recorded using an EnVision following the instruction of manual. […] The IC50 value was calculated via a regression analysis of the inhibition rate.

[1] = Pharmacokinetic Profile Evaluation (mouse PK); type: in vivo, CD-1 mice; settings: CD-1, plasma, oral administration at 5 mg/kg
Experimental: Species and strain: CD-1 mice of SPF. Source: Sino-British SIPPR/BK Lab Animal Ltd, Shanghai. 3 mice were intravenously administrated with given compounds (Formulation: 5% DMSO+10% Solutol+85% Saline) or orally gavage administrated with given compounds (Formulation: 5% DMSO+10% Solutol+85% Saline). The blood samples were taken via cephalic vein at timepoints 0.083 h, 0.25 h, 0.5 h, 1 h, 2 h, 4 h, 8 h and 24 h after intravenous administration or at timepoints 0.25 h, 0.5 h, 1 h, 2 h, 4 h, 6 h, 8 h and 24 h after oral gavage administration, 30 μL/time point. Blood samples were placed in tubes containing K2-EDTA and stored on ice until centrifuged. The blood samples were centrifuged at 6800 g for 6 minutes at 2-8° C. within 1 h after collected and stored frozen at approximately −80° C. An aliquot of 10 μL plasma samples were protein precipitated with 200 μL MeOH in which contains 10 ng/mL Verapamil (IS). The mixture was vortexed for 1 min and centrifuged at 18000 g for 7 min. Transfer 180 μL supernatant to 96 well plates. An aliquot of 6 μL supernatant was injected for LC-MS/MS analysis by LC-MS/MS-04 (API4000) instrument. The analytical results were confirmed using quality control samples for intra-assay variation. The accuracy of >66.7% of the quality control samples should be between 80-120% of the known value(s). Standard set of parameters including Area Under the Curve (AUC(0-t) and AUC(0-∞)), elimination half-live (T1/2), maximum plasma concentration (Cmax), will be calculated using noncompartmental analysis modules in FDA certified pharmacokinetic program Phoenix WinNonlin 7.0 (Pharsight, USA).

With `Cc1ccc2oc(C3CCN(c4cc(=O)n(C)c5ccc(C#N)nc45)CC3)nc2c1` [Example 1, 5-methyl-8-(4-(5-methylbenzo[d]oxazol-2-yl)piperidin-1-yl)-6-oxo-5,6-dihydro-1,5-naphthyridine-2-carbonitrile] the Activation fold (Human Pan T cells) was 17.7, the “Activation % at 100 nM” value (Human Pan T cells) was 416% and the IC50 (DGKA) was 1.99 nM. For the same molecule, the AUC(0-inf) [1] was 6150 ng·h/mL, the AUC(0-t) [1] was 5980 ng·h/mL and the Cmax [1] was 1880 ng/mL. It also gave a half-life [1] of 1.46 h.

In the case of `Cn1c(=O)cc(N2CCC(c3nc4cc(F)ccc4o3)CC2)c2nc(C#N)ccc21` [Example 12, 8-(4-(5-fluorobenzo[d]oxazol-2-yl)piperidin-1-yl)-5-methyl-6-oxo-5,6-dihydro-1,5-naphthyridine-2-carbonitrile], the Activation fold (Human Pan T cells) is reported as 8.5, the “Activation % at 100 nM” value (Human Pan T cells) is reported as 340% and the IC50 (DGKA) is reported as 1.35 nM. For the same molecule, the AUC(0-inf) [1] was 5940 ng·h/mL, the AUC(0-t) [1] was 5460 ng·h/mL and the Cmax [1] was 1100 ng/mL. It also gave a half-life [1] of 3.56 h.

For `Cc1ccc2oc(C3CCN(c4cc(=O)n(C)c5cc(OCCO)c(C#N)nc45)CC3)nc2c1` [Example 23, 3-(2-hydroxyethoxy)-5-methyl-8-(4-(5-methylbenzo[d]oxazol-2-yl)piperidin-1-yl)-6-oxo-5,6-dihydro-1,5-naphthyridine-2-carbonitrile], the Activation fold (Human Pan T cells) was 24.5, the “Activation % at 100 nM” value (Human Pan T cells) was 931% and the IC50 (DGKA) was 0.27 nM. The AUC(0-inf) [1] was 12100 ng·h/mL, the AUC(0-t) [1] was 12000 ng·h/mL and the Cmax [1] was 1820 ng/mL. It also gave a half-life [1] of 3.51 h.

With `Cc1ccc2oc(C3CCN(c4cc(=O)n(C)c5cc(O[C@@H]6CCOC6)c(C#N)nc45)CC3)nc2c1` [Example 28, (R)-5-methyl-8-(4-(5-methylbenzo[d]oxazol-2-yl)piperidin-1-yl)-6-oxo-3-((tetrahydrofuran-3-yl)oxy)-5,6-dihydro-1,5-naphthyridine-2-carbonitrile] the IC50 (DGKA) was 0.14 nM, the AUC(0-inf) [1] was 3460 ng·h/mL and the AUC(0-t) [1] was 3410 ng·h/mL. For the same molecule, the Cmax [1] was 677 ng/mL and the half-life [1] was 2.67 h.
